{
  "source": "patent CN114790169A",
  "about": "“四氢喹啉相关二环类化合物及其应用” (Guangzhou Institute of Biomedicine and Health of CAS, priority 2016, dated 2017)",
  "data": [
    {"biological_target": "T1, nuclear receptor RORγ [核受体RORγ] (Homo sapiens, UniProt P51449)", "T1 construct": "重组质粒:Gal4-RORγLBD:25ng; expressed in transfected cells; host or cells: 293T (human kidney epithelial cell line)", "T1 sequence (P51449 269-508 limits assumed)": "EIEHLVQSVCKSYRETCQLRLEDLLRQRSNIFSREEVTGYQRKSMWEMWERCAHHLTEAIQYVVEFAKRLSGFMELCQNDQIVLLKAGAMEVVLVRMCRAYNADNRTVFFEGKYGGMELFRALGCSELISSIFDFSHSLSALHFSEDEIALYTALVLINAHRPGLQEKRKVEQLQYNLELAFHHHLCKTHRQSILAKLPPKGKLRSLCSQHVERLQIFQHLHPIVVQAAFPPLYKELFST", "experiment": "Dual-luciferase reporter assay, inhibition of nuclear receptor RORγ at cell level in 293T cells (Gal4-RORγLBD)", "assay_type": "cell-based", "settings": "inhibitory activity against RORγ at cell level; 293T cells, 24 h incubation with compound", "units": {"IC50": "nM"}, "values": [
      {"compound": "COC(=O)c1ccccc1S(=O)(=O)N1CCCc2ccc(NS(=O)(=O)c3ccc4c(c3)OCCO4)cc21", "note": "[实施例52, 2-((7-(2,3-二氢苯并[b][1,4]二氧杂环己烯-6-磺酰基)-3,4-二氢喹啉-1(2H) -基)磺酰基)苯甲酸甲酯]", "IC50": 700},
      {"compound": "COC(=O)c1ccccc1S(=O)(=O)N1CCCc2ccc(NS(=O)(=O)c3ccc(F)cc3F)cc21", "note": "[实施例31, 2-((7-(2,4-二氟苯基磺酰氨基)-3,4-二氢喹啉-1(2H)-基)磺酰基)苯甲酸甲酯]", "IC50": 160},
      {"compound": "COC(=O)c1ccccc1S(=O)(=O)N1CCCc2ccc(NS(=O)(=O)c3ccc(OC)cc3)cc21", "note": "[实施例55, 2-((7-((4-甲氧基苯基)磺酰氨基)-3,4-二氢喹啉-1(2H)-基)磺酰基)苯甲酸甲酯]", "IC50": 410},
      {"compound": "COC(=O)c1ccccc1S(=O)(=O)N1CCCc2ccc(NS(=O)(=O)c3c(Cl)cccc3Cl)cc21", "note": "[实施例54, 2-((7-(2,6-二氯苯基磺酰氨基)-3,4-二氢喹啉-1(2H)-基)磺酰基)苯甲酸甲酯]", "IC50": 230},
      {"compound": "O=S(=O)(Nc1ccc2c(c1)N(S(=O)(=O)Cc1ccc(F)cc1)CCC2)c1ccc(F)cc1F", "note": "[实施例28, 2,4-二氟-N-(1-((4-氟苄基)磺酰基)-1,2,3,4-四氢喹啉-7-基)苯磺酰胺]", "IC50": 740},
      {"compound": "Cc1ccc(S(=O)(=O)Nc2ccc3c(c2)N(S(=O)(=O)c2ccc(F)cc2)CCC3)s1", "note": "[实施例5, N-(1-((4-氟苯基)磺酰基)-1,2,3,4-四氢-7-基)-5-甲基噻吩-2-磺酰胺]", "IC50": 740},
      {"compound": "COC(=O)c1ccccc1S(=O)(=O)N1CCCc2ccc(NS(=O)(=O)c3cc(OC)ccc3OC)cc21", "note": "[实施例56, 2-((7-((2,5-二甲氧基苯基)磺酰氨基)-3,4-二氢喹啉-1(2H)-基) 磺酰基)苯甲酸甲酯]", "IC50": 160},
      {"compound": "COC(=O)c1ccc(S(=O)(=O)Nc2ccc3c(c2)N(S(=O)(=O)c2ccc(F)cc2)CCC3)cc1", "note": "[实施例19, 4-(N-(1-((4-氟苯基)磺酰基)-1,2,3,4-四氢喹啉-7-基)氨磺酰)苯甲酸甲酯]", "IC50": 880},
      {"compound": "N-(1-(噻吩-2-基磺酰基)-1,2,3,4-四氢喹啉-6-基)-2,3-二氢苯并[b][1,4]二氧杂环己烯 -6-磺酰胺 [实施例66]", "IC50": 900},
      {"compound": "O=S(=O)(Nc1ccc2c(c1)N(S(=O)(=O)c1ccc(F)cc1)CCO2)c1ccc2c(c1)OCCO2", "note": "[实施例12, N-(4-((4-氟苯基)磺酰基)-3,4-二氢-2H-苯并[b][1,4]恶嗪-6-基)-2,3-二氢苯并[b] [1,4]二氧杂环己烯-6-磺酰胺]", "IC50": 690},
      {"compound": "COC(=O)c1ccc(CS(=O)(=O)Nc2ccc3c(c2)N(S(=O)(=O)c2ccc(F)cc2)CCC3)cc1", "note": "[实施例23, 4-((N-(1-((4-氟苯基)磺酰基)-1,2,3,4-四氢喹啉-7-基)氨磺酰)甲基)苯甲酸甲酯]", "IC50": 940},
      {"compound": "O=S(=O)(Nc1ccc2c(c1)N(S(=O)(=O)c1ccc(F)cc1)CCC2)c1ccc2c(c1)OCCO2", "note": "[实施例8, N-(1-((4-氟苯基)磺酰基)-1,2,3,4-四氢喹啉-7-基)-2,3-二氢苯并[b][1,4] 二氧杂环己烯-6-磺酰胺]", "IC50": 790},
      {"compound": "O=S(=O)(Nc1ccc2c(c1)N(S(=O)(=O)c1cccs1)CCC2)c1ccc2c(c1)OCCO2", "note": "[实施例48, N-(1-(噻吩-2-基磺酰基)-1,2,3,4-四氢喹啉-7-基)-2,3-二氢苯并[b][1,4]二氧杂环己烯-6-磺酰胺]", "IC50": 580},
      {"compound": "COC(=O)c1cccc(CS(=O)(=O)N2CCCc3ccc(NS(=O)(=O)c4ccc(F)cc4F)cc32)c1", "note": "[实施例30, 3-(((7-(2,4-二氟苯基磺酰氨基)-3,4-二氢喹啉-1(2H)-基)磺酰基)甲基)苯甲酸甲酯]", "IC50": 930},
      {"compound": "COC(=O)c1ccccc1S(=O)(=O)N1CCCc2ccc(NS(=O)(=O)c3cccc(Cl)c3F)cc21", "note": "[实施例53, 2-((7-(3-氯-2-氟苯基磺酰氨基)-3,4-二氢喹啉-1(2H)-基)磺酰基)苯甲酸甲酯]", "IC50": 790}
    ]},
    {"biological_target": "T1, nuclear receptor RORγ [核受体RORγ]", "experiment": "Dual-luciferase reporter assay, inhibition of nuclear receptor RORγ at cell level in 293T cells (Gal4-RORγLBD)", "assay_type": "cell-based", "settings": "luciferase, RORγ cell level; reference drug T1317", "values": [
      {"compound": "COC(=O)c1ccccc1S(=O)(=O)N1CCCc2ccc(NS(=O)(=O)c3ccc(F)cc3F)cc21", "note": "[实施例31, 2-((7-(2,4-二氟苯基磺酰氨基)-3,4-二氢喹啉-1(2H)-基)磺酰基)苯甲酸甲酯]", "inhibitory activity compared with reference drug": "比对照药活性更好"},
      {"compound": "CS(=O)(=O)c1cccc(S(=O)(=O)Nc2ccc3c(c2)N(S(=O)(=O)c2ccc(F)cc2)CCC3)c1", "note": "[实施例22, N-(1-((4-氟苯基)磺酰基)-1,2,3,4-四氢喹啉-7-基)-3-(甲基磺酰基)苯磺酰胺]", "inhibitory activity compared with reference drug": "比对照药活性相当"},
      {"compound": "COC(=O)c1cccc(CS(=O)(=O)Nc2ccc3c(c2)N(S(=O)(=O)c2ccc(F)cc2)CCC3)c1", "note": "[实施例24, 3-((N-(1-((4-氟苯基)磺酰基)-1,2,3,4-四氢喹啉-7-基)氨磺酰)甲基)苯甲酸甲酯]", "inhibitory activity compared with reference drug": "比对照药活性相当"}
    ]},
    {"biological_target": "T2, RORα (Homo sapiens, UniProt P35398)", "T2 sequence (P35398 1-523)": "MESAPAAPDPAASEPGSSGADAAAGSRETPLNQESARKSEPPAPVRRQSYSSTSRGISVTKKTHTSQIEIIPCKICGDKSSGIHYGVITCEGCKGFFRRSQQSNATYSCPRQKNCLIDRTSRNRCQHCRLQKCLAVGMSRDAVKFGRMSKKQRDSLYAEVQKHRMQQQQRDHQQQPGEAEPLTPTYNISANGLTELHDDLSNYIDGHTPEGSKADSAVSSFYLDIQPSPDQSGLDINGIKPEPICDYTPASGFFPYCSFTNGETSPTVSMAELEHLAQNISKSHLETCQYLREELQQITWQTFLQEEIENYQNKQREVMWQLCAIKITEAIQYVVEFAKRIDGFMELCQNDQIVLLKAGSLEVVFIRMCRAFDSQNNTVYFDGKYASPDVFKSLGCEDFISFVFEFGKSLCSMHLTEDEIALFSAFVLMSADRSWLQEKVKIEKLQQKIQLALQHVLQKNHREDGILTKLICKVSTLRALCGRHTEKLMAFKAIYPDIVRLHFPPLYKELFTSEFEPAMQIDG", "experiment": "not given", "settings": "literature, in words; cited from earlier work", "values": [
      {"compound": "CC(=O)Nc1nc(C)c(S(=O)(=O)Nc2ccc(C(O)(C(F)(F)F)C(F)(F)F)cc2)s1", "note": "[SR1001]", "action on RORα": "对RORγ和RORα有双重作用的反向激动剂"},
      {"compound": "O=S(=O)(c1ccccc1)N(CC(F)(F)F)c1ccc(C(O)(C(F)(F)F)C(F)(F)F)cc1", "note": "[T1317]", "action on RORα": "可以与RORγ和RORα结合并调控它们的活性"},
      {"compound": "O=S(=O)(Nc1ccc(C(O)(C(F)(F)F)C(F)(F)F)cc1)c1cccs1", "note": "[SR3335]", "action on RORα": "RORα的选择性反向激动剂"}
    ]},
    {"biological_target": "T3, glucocorticoid receptor [糖皮质激素受体] (Homo sapiens, UniProt P04150)", "T3 sequence (P04150 1-777)": "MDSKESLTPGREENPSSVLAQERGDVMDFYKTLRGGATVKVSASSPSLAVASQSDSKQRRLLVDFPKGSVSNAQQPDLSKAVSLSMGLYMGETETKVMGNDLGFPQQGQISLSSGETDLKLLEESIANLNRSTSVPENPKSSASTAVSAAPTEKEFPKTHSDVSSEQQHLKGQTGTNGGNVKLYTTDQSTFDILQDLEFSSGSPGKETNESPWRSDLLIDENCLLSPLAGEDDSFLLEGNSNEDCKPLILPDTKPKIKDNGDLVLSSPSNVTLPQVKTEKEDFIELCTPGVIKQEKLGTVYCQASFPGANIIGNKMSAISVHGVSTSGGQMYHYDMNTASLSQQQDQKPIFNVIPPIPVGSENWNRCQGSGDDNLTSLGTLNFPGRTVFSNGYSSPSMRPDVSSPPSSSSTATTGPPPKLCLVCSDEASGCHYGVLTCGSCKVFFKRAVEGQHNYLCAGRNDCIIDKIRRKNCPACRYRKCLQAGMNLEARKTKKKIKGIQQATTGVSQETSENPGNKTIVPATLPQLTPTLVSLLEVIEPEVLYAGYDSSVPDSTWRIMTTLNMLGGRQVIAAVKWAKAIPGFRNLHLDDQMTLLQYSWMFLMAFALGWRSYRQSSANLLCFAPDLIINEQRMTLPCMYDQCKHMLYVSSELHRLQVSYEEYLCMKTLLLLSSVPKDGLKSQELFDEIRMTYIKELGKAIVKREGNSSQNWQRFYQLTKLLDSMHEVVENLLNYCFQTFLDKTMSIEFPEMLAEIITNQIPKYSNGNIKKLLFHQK", "experiment": "not given", "settings": "literature, in words; cited from earlier work", "values": [
      {"compound": "C[C@H]1[C@H](C)CC[C@]2(C(=O)O)CC[C@]3(C)C(=CC[C@@H]4[C@@]5(C)CC[C@H](O)C(C)(C)[C@@H]5CC[C@]43C)[C@H]12", "note": "[熊果酸]", "action on glucocorticoid receptor": "对糖皮质激素受体也有作用"}
    ]},
    {"biological_target": "T4, RORγ (Homo sapiens, UniProt P51449)", "T4 sequence (P51449 1-518)": "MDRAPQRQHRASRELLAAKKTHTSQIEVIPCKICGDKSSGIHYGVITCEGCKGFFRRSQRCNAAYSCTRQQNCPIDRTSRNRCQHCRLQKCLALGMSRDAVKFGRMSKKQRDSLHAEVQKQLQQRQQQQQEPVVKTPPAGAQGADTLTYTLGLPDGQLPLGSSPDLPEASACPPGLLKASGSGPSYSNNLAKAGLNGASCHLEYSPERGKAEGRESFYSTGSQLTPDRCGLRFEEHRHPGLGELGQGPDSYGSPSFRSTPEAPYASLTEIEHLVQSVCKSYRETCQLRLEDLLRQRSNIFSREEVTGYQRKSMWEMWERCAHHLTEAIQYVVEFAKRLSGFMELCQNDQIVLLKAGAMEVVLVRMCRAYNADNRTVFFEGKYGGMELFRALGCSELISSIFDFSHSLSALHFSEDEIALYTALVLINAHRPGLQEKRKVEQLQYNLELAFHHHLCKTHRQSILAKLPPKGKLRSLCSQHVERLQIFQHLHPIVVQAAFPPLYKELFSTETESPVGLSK", "experiment": "not given", "settings": "literature, in words; cited from earlier work", "values": [
      {"compound": "C[C@H]1O[C@@H](O[C@H]2[C@@H](O)C[C@H](O[C@H]3[C@@H](O)C[C@H](O[C@H]4CC[C@@]5(C)[C@H](CC[C@@H]6[C@@H]5C[C@@H](O)[C@]5(C)[C@@H](C7=CC(=O)OC7)CC[C@]65O)C4)O[C@@H]3C)O[C@@H]2C)C[C@H](O)[C@@H]1O", "note": "[地高辛]", "action on RORγ": "可以作为RORγ的选择性调控物质"}
    ]},
    {"tested_on": "other nuclear receptors (LXRα/β, FXR, PXR) [其他核受体 (LXRα/β,FXR,PXR)]", "experiment": "not given", "settings": "literature, in words; cited from earlier work", "values": [
      {"compound": "O=S(=O)(c1ccccc1)N(CC(F)(F)F)c1ccc(C(O)(C(F)(F)F)C(F)(F)F)cc1", "note": "[T1317]", "action on other nuclear receptors": "还与至少四种其他核受体 (LXRα/β,FXR,PXR)有作用"}
    ]},
    {"tested_on": "not given", "experiment": "not given", "settings": "literature, in words; cited from earlier work", "values": [
      {"compound": "C[C@H]1O[C@@H](O[C@H]2[C@@H](O)C[C@H](O[C@H]3[C@@H](O)C[C@H](O[C@H]4CC[C@@]5(C)[C@H](CC[C@@H]6[C@@H]5C[C@@H](O)[C@]5(C)[C@@H](C7=CC(=O)OC7)CC[C@]65O)C4)O[C@@H]3C)O[C@@H]2C)C[C@H](O)[C@@H]1O", "note": "[地高辛]", "side effects": "有很强的副作用"}
    ]}
  ]
}
